Reference: patent US5691361A, “1,4-dihydropyridine derivatives, a process for their preparation and their use for influencing the blood flow” (priority 1995, dated 1997)

How the values were obtained:
[1] = tested on: rabbit aorta strips; experiment: Vasoconstrictory effect in rabbit aorta strips at low depolarizing conditions (10 mM K+); type: cell-based; conditions: for EC50: Oryctolagus cuniculus, rabbit aorta strips predepolarized with 10 mM K+
Experimental: The vasoconstrictory effects are measured at low depolarizing conditions in rabbit aorta strips. 10 mM K^+ is used to obtain a low starting concentration. Subsequently, increasing concentrations of the test compound are added in order to achieve an increase in contraction.
The EC50 (negative logarithm of the molar concentration required to increase the calcium induced contraction of low K^+ depolarized rabbit aorta by 50%) is analysed by interpolation of the corresponding concentration-response curves (table 4).

[2] = tested on: rabbit aorta; experiment: Vasodilatory effect: inhibition of calcium-induced contraction of K+-depolarized isolated rabbit aorta strips; type: cell-based, white New Zealand rabbits; conditions: Oryctolagus cuniculus
Experimental: (§1) The vasodilatory effects are tested as follows: an isolated aorta of the thorax of white New Zealand rabbits is secured in an organ bath. The contractile activity of the helical throacic aorta strip is recorded after depolarization with Krebs solution without calcium (35 mM, potassium) and addition of external calcium pulses (1.5 mM). The compounds are added in increasing concentrations before calcium is reintroduced.

[3] = tested on: left stimulated rabbit atrium / rabbit aorta; experiment: Tissue selectivity: ratio of IC50 in left stimulated isolated rabbit atrium to IC50 in K+-depolarized rabbit aorta; type: cell-based; conditions: ratio of IC50 in left stimulated rabbit atrium and IC50 in rabbit aorta
Experimental: as §1
The electrical stimulation is fixed at 1 Hz. After one hour equilibration the percentage contraction is set at 100%, increased concentrations of the compounds are added to the bath every 15 minutes and the changes in the contractile force are recorded. The IC50 values are calculated by interpolation from the concentration-effect relationship determined in each of the experiments.

[4] = tested on: spontaneously hypertensive rats (SHR); experiment: Antihypertensive activity in spontaneously hypertensive rats (systolic blood pressure, tail plethysmography); type: in vivo, spontaneously hypertensive rats (SHR) of Okamoto strain; conditions: Rattus norvegicus, single oral dose 20 mg/kg, 2 hours after treatment
Experimental: The antihypertensive activity of the compounds of the invention is tested in spontaneously hypertensive rats (SHR) of Okamoto strain. Systolic blood pressure is monitored by tail plethysmography. The animals are trained for two weeks for the monitoring process. On the day of the experiment the rats are placed in an oven for two hours at 31°±1° C. and blood pressure is recorded graphically. The measurement recorded is the average of five measurements taken in each case. Only animals with basic values of systolic blood pressure over 170 mm Hg are considered hypertensive. After 24 hours fasting the compound to be tested (20 mg/kg) and/or a carrier (20% PEG 400 in 0.5% aqueous methyl cellulose (10 ml/kg)) is orally administered to the selected hypertensive animals by means of a gastric cannula. The values are expressed in percentage variation 2 hours after treatment.

Row | Compound | vasoconstrictory properties (in words) [1] | EC50 [1] [nM] | IC50 [2] [nM] | Selectivity index (Atrium/Aorta) [3] | change in vivo at 20 mg/kg [4] [%]
1 | CC1=C(C(=O)OCN2C(=O)c3ccccc3S2(=O)=O)C(c2cccc([N+](=O)[O-])c2)C(C(=O)OC(C)(C)C)=C(C)N1 (stereo not drawn) [Example 53, 5-Tert.-butoxycarbonyl-2,6-dimethyl-4-(3-nitrophenyl)-1,4-dihydropyridine-3-carboxylic acid-N-(1,2-benzisothiazolyl-3(2H)one-1,1-dioxide)-methylester] | has vasoconstrictory properties | 9.3 | – | – | –
2 | CC1=C(C(=O)OCCCN2C(=O)c3ccccc3S2(=O)=O)C(c2ccccc2[N+](=O)[O-])C(C(=O)OC(C)C)=C(C)N1 (stereo not drawn) [Example 39, 2,6-Dimethyl-5-isopropoxycarbonyl-4-(2-nitrophenyl)-1,4-dihydropyridine-3-carboxylic acid-3-[N-(1,2-benzisothiazolyl-3(2H)one-1,1-dioxide)]-propylester] | – | – | 1.22 | 15 | 3.61
3 | CC1=C(C(=O)OCCCN2C(=O)c3ccccc3S2(=O)=O)C(c2ccccc2Cl)C(C(=O)OC(C)C)=C(C)N1 (stereo not drawn) [Example 52, 4-(2-Chlorophenyl)-2,6-dimethyl-5-isopropoxycarbonyl-1,4-dihydropyridine-3-carboxylic acid-3-[N-(1,2-benzisothiazolyl-3(2H)one-1,1-dioxide)]-propylester] | – | – | 1.3 | 37 | 19.4
4 | COC(=O)C1=C(C)NC(C)=C([N+](=O)[O-])C1c1ccccc1C(F)(F)F (stereo not drawn) [BayK-8644, 2,6-dimethyl-3-nitro-4-(2-trifluoromethylphenyl)-1,4-dihydropyridine-5-carboxylic acid methylester, reference compound] | – | 13 | – | – | –
